Results: article PMC9521028, “Lengthening the Guanidine–Aryl Linker of Phenylpyrimidinylguanidines Increases Their Potency as Inhibitors of FOXO3-Induced Gene Transcription” (ACS Omega, 2022)
Values after ≈ are worked out from the molar mass of the structure shown.

Assays:
[1] = test system: FOXO3 binding to the promoter region of DEPP1 in SH-EP/FOXO3 cells; experiment: DEPP1-luciferase reporter assay of FOXO3 transcriptional activity; type: cell-based
Protocol: (§1) The ability of these compounds to inhibit FOXO3 transcriptional activity was further examined by assessing their effect on FOXO3 binding to the promoter region of decidual protein induced by progesterone 1 (DEPP1) after transfecting a DEPP1-luciferase reporter plasmid into SH-EP neuroblastoma cells stably expressing a 4-hydroxy-tamoxifen (4OHT)-regulated FOXO3(A3)ERtm transgene. […] In parallel, the toxicity of the compounds was tested by assessing their effect on endogenous DEPP1 and actin promoters in SH-EP cells.
Transcriptional activation of the DEPP1 promoter by conditional FOXO3 was assessed after transfection of a DEPP1-luciferase reporter plasmid pGS c10orf10 Prom wt (DEPP1-LUC)[20] into SH-EP/FOXO3 cells using the JetPrime reagent (Polyplus, Berkeley). After 24 h of transfection, mTFP fluorescent protein expression from a cotransfected expression vector was assessed by live cell fluorescence microscopy to verify equal transfection rates before seeding cells into 24-well plates. After 48 h of transfection, the cells were pretreated with indicated concentrations of each compound (30 min) before adding 100 nM 4-hydroxy-tamoxifen (4OHT) for 3 h to activate ectopic FOXO3. Firefly-luciferase was analyzed using the Luciferase Assay System (Promega, Madison). Luminescence intensity was measured in a Hidex Chameleon—Multilabel Microplate Reader (Hidex, Turku, Finland).

[2] = target: T1, FOXO3-DBD (Homo sapiens, UniProt O43524); experiment: NMR (1H STD and 1H-15N HSQC titration) of compound binding to FOXO3-DBD; details: 15 μM FOXO3-DBD, 1 mM compound, pH 6.5, 298 K
T1 construct: DNA encoding human FOXO3-DBD (residues 156–269); GST (N, cleaved yes); made in house; host or cells: E. coli BL21(DE3)
Protocol: STD experiment was performed at 298 K on a Bruker Avance III HD 850 MHz spectrometer (Bruker, Billerica, Massachusetts) equipped with a ^13C/^1H/^15N cryoprobe. The 550 μL sample contained 15 μM FOXO3-DBD and 1 mM 5cj in 20 mM phosphate buffer (pH 6.5) supplemented by 50 mM KCl and 10% ^2H2O. ^1H STD NMR was performed using a standard “stddiffesgp” pulse sequence with excitation sculpting and pulse-field gradients for water suppression. On-resonance irradiation was done at −0.54 ppm and off-resonance irradiation at 30 ppm, using a 50 ms shaped Eburp2.1000 pulse of power 40 dB for a saturation time of 3 s. The difference spectra were obtained by subtracting the on-resonance spectrum from the off-resonance spectrum. The spectra were analyzed using TopSpin software (v3.6).
2D ^1H–^15N HSQC spectra were acquired on both Bruker Avance III HD 850 MHz and Bruker Avance III 600 MHz (Bruker, Billerica, Massachusetts) spectrometers equipped with a ^13C/^1H/^15N cryoprobe. All HSQC experiments were measured at 298 K in Shigemi NMR tubes (Shigemi Co., Ltd., Tokyo, Japan) containing 350 μL of sample in 100 mM phosphate buffer (pH 6.5) supplemented with 50 mM KCl and 10% ^2H2O. […] All spectra were processed in TopSpin software (v3.6) and evaluated in Sparky software (v3.1).[43] CSP values obtained from 2D ^1H–^15N HSQC experiments were calculated using the following formula[44] […]

[3] = test system: endogenous DEPP1 and actin promoters in SH-EP cells; experiment: Toxicity control: endogenous DEPP1 and actin promoter luciferase reporters; type: cell-based; details: 0.78 μM, SH-EP cells
Protocol: as §1
For this purpose, 2 × 10^6 SH-EP cells were transfected with either a DEPP1-LUC-reporter plasmid or an actin-LUC reporter plasmid using JetPrime reagent (Polyplus, Berkeley). Actin-LUC was constructed by inserting a 1.3 kb fragment of the chicken β actin promoter into pGL3-luc reporter vector (Promega, Madison). After 24 h of transfection, the cells were seeded into 24-well plates. After another 24 h, the cells were pretreated with indicated concentrations of compound for 3.5 h. Firefly-luciferase was analyzed using the Luciferase Assay System (Promega, Madison). Luminescence intensity was measured in a Hidex Chameleon—Multilabel Microplate Reader (Hidex, Turku, Finland).

[4] = Estimation of compound solubility in water (saturated solution, UV-vis); type: physicochemical; details: aqueous buffer, thermodynamic from solid; 20 mM phosphate (pH 6.5) and 50 mM KCl buffer at 23 °C
Protocol: To estimate the solubility, we prepared saturated solutions of the compounds by adding 5 mg of each selected compound to 700 μL of 20 mM phosphate buffer (pH 6.5) containing 50 mM KCl. After 48 h of gentle agitation at room temperature (RT), the solutions were spun down, and the supernatant was filtered through 0.2 μm of SPARTAN 13/0.2 RC filter units (Merck KgaA, Darmstadt, Germany) and diluted 100–200× in the same phosphate buffer. The diluted solutions were transferred into the quartz cuvette, recording UV–vis absorption spectra in the range from 200 to 600 nm on a UV-1800 UV/visible scanning spectrophotometer (Shimadzu, Kyoto, Japan) at room temperature. The compound concentrations were estimated by the single point calibration using the absorption at wavelengths higher than 240 nm outside of DMSO absorption of 2000× diluted 50 mM DMSO-dissolved stock solution in phosphate buffer.

[5] = test system: FOXO3-induced apoptotic cell death in SH-EP/FOXO3 neuroblastoma cells; experiment: Resazurin early cell death evaluation assay; type: cell-based
Protocol: Moreover, we also attempted to determine the IC50 values of 5ci, 5cj, and 5db using a resazurin early cell death evaluation assay in cells expressing a conditional FOXO3 allele that triggers apoptotic cell death upon activation.
Neuroblastoma cells SH-EP/FOXO3 were seeded into 96-well plates and treated with concentrations 0.05, 0.1, 0.2, 0.39, 0.78, 1.56, 3.125, 6.25, 12.5, 18.75, and 25 μM of 5ca and its derivatives 30 min before activating ectopic FOXO3 by 100 nM 4OHT. For 5ca derivatives, concentrations above 3.125 μM had to be excluded from the analysis due to spontaneous cell death induction. Resazurin salt (Sigma-Aldrich s.r.o., St. Louis, Missouri) was diluted to a final concentration of 0.01% (wt/vol), and 20 μL of this dilution was added to 200 μL of the cell culture in each well 24 h after FOXO3 activation. Resazurin is reduced in viable cells to red-fluorescent resoflurin, which was quantified in a Hidex Chameleon—Multilabel Microplate Reader (Hidex, Turku, Finland) at filter settings 544 nm Ex/616 nm Em.

T1 sequence (O43524 156-269): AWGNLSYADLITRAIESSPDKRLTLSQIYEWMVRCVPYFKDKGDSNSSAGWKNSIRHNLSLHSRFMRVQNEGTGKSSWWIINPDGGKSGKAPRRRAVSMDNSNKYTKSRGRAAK

Cc1cc(C)nc(NC(=N)NCCc2ccccc2)n1 [5cj, 1-(4,6-Dimethylpyrimidin-2-yl)-3-phenethylguanidine]
potency in blocking FOXO3 binding to the promoter region of DEPP1 ([1]; 25 and 12.5 μM compound): the most potent compounds
efficiency of blocking FOXO3 binding to the promoter region of DEPP1 ([1]; lower concentrations, down to 0.78 μM): more efficiently than 5cg, 5da, and 5dc
inhibition of FOXO3-mediated transcription ([1]; lowest concentration tested, 0.78 μM): significantly inhibited
inhibitory potency on target gene activation by FOXO3 (in words) ([1]; summary of the reporter data, Figures 2, S2, S3): highest inhibitory potency
1H STD NMR signals with FOXO3-DBD [2]: STD signals were detected
effect on endogenous DEPP1 and actin promoters (toxicity markers) [3]: without any effect
solubility at 48 h [4]: 13 mM (≈ 3500 µg/mL)
IC50 ([5]; Neuroblastoma cell, SH-EP/FOXO3 cells, 100 nM 4OHT, 24 h, approximate, toxicity prevented accurate determination, read-out: IC50, inhibition of FOXO3-induced cell death): ~1000 nM
concentration above which the compound is toxic (spontaneous cell death) ([5]; SH-EP/FOXO3 cells): higher than 4 μM
fold lower IC50 than that of 5ca ([5]; resazurin assay, ratio to 5ca IC50 of ∼8 μM): 8–16 ×
